“Also recorded” adds a separate entry of the source.
Legend:
Assay type in all cases: cell-based
[1] = system: MC3T3-E1 cells; assay: Cell proliferation on ECM protein coated wells with FGF-2, CyQuant; settings: wells containing ECM proteins and FGF-2
Protocol: Cell Proliferation: Five-hundred MC3T3-E1 osteoblast like cells were plated on a 96 well plate with ECM proteins coated on the bottom of the well. Sextuplet independent samples with and without FGF-2 were each plated in wells and 500 MC3T3-E1 cells were then adhered and grown for 3 days. Cell number was measured using CyQuant assay kit. Medium was changed daily

[2] = system: MC3T3-E1 cell monolayers; assay: Cell re-growth and migration into the coverslip defect, rhodamine phalloidin microscopy; settings: for re-growth of cells into the defect, in words / relative migration: 24 hours after injury; for relative migration: from wound site to migrating edge; for pattern of re-growth and cell morphology in the defect, in words: FGF-2 0.2 ng/ml, PGE2 10 μg/ml
Protocol: Cell culture: Cloned MC3T3-E1 osteoblasts (Kodama et al., J. Cell. Physiol. 112:89-95, 1992) were maintained in alpha MEM medium (Catalog No. MT15012CV Fisher Scientific, Pittsburgh, Pa.) containing 10% fetal bovine serum (FBS), 1% antibiotic solution and 1% glutamine solution and subcultured every 3 to 4 days. The cells were subcultured by incubating with trypsin for five minutes and resuspending at a concentration of 3×10^5 cells/ml. For experiments, cells were grown in the same medium as above, using multiwell plates (35 mm for microscopy and 22 mm for thymidine uptake studies). Each well contained a round 12 mm glass cover slip. Cultures for microscopy contained a 22 mm diameter coverslip with a 12 mm coverslip on top. After three days, the cells reached confluence and differentiation medium (DM) was added. DM was alpha MEM medium containing 10% FBS, 1% antibiotic solution and 1% glutamine solution, supplemented with ascorbic acid (50 μg/ml) and β-glycerol phosphate (10 mM) to induce mineralization. The cultures were then incubated for 9 more days. Microscopic examination was done at this time, using Von Kossa stain to confirm mineralization of the cultures. A critical defect in the mineralized cell layers was created by removing the 12 mm coverslips under sterile conditions and then incubating the cultures for an additional 24 hours in DM containing 4% FBS with IGF-1 (20 ng/ml), FGF-2 (0.2 ng/ml), PDGF (3 ng/ml), TGFβ ([…]). At least triplicate independent biological samples in multiple experiments were carried out for data collection.
Microscopy: At the conclusion of the 24 hour incubation, the remaining 22 mm coverslip containing the regenerating area of the culture was removed. The specimen was rinsed five times in room temperature phosphate buffered saline (PBS) and fixed. Cells were visualized with the F-actin probe rhodamine phalloidin (Invitrogen, Carlsbad, Calif.). After rinsing in distilled water and air drying the samples, the coverslips were mounted on microscope slides using FLUOROMOUNT™ and the cells were examined and photographed. Photomicrographs were made on a Zeiss Axioskop epi-fluorescent microscope using a 40× objective. Migration was measured on the photomicrographs from the site of the wound to the migrating edge using a metric ruler (n=3) for each measurement.

[3] = system: Wounded Mineralized MC3T3-E1 Cells; assay: Total protein content of wounded mineralized cultures (Bio-Rad DC protein assay); settings: normalized to the control culture; 24 hours of treatment
Protocol: (§1) Cell culture: Cloned MC3T3-E1 osteoblasts (Kodama et al., J. Cell. Physiol. 112:89-95, 1992) were maintained in alpha MEM medium (Catalog No. MT15012CV Fisher Scientific, Pittsburgh, Pa.) containing 10% fetal bovine serum (FBS), 1% antibiotic solution and 1% glutamine solution and subcultured every 3 to 4 days. The cells were subcultured by incubating with trypsin for five minutes and resuspending at a concentration of 3×10^5 cells/ml. For experiments, cells were grown in the same medium as above, using multiwell plates (35 mm for microscopy and 22 mm for thymidine uptake studies). Each well contained a round 12 mm glass cover slip. Cultures for microscopy contained a 22 mm diameter coverslip with a 12 mm coverslip on top. After three days, the cells reached confluence and differentiation medium (DM) was added. DM was alpha MEM medium containing 10% FBS, 1% antibiotic solution and 1% glutamine solution, supplemented with ascorbic acid (50 μg/ml) and β-glycerol phosphate (10 mM) to induce mineralization. The cultures were then incubated for 9 more days. Microscopic examination was done at this time, using Von Kossa stain to confirm mineralization of the cultures. A critical defect in the mineralized cell layers was created by removing the 12 mm coverslips under sterile conditions and then incubating the cultures for an additional 24 hours in DM containing 4% FBS with IGF-1 (20 ng/ml), FGF-2 (0.2 ng/ml), PDGF (3 ng/ml), TGFβ (2 ng/ml) or PGE2 (2 μg/ml). At least triplicate independent biological samples in multiple experiments were carried out for data collection.
Protein assay: Protein concentration was determined by Bio-Rad DC™ protein assay (Bio-Rad, Hercules, Calif.) according to the manufacturer's protocol.

[4] = system: MC3T3-E1 osteoblasts; assay: [3H]-thymidine incorporation into DNA in wounded mineralized cell layers (in vitro fracture model); settings: for change in DNA synthesis (thymidine incorporation), in words: wounded MC3T3-E1, within twenty-four hours of treatment; for increase of thymidine incorporation: wounded MC3T3-E1, 24 hour treatment, FGF-2 0.2 ng/ml, TGFβ 2 ng/ml, PGE2
Protocol: as §1
Tritiated thymidine incorporation into DNA: At the conclusion of the 24 hour incubation, the culture medium was removed and the cells were incubated for 15 minutes at 37° C. in 1 ml PBS containing tritiated thymidine (4 μCi/ml). Following this incubation, the PBS was removed and the cells washed 3 times with ice cold trichloroacetic acid (TCA) followed by ice cold ethanol and allowed to air dry. Then 1 ml of sarkosyl lysis buffer ([…] containing 1% sarkosyl) was added to each well; all the cells were solubilized after 30 minutes. Finally, after mixing the resulting solution with a pipette, radioactivity was counted in a scintillation counter and protein content was measured. The data was calculated and expressed as disintegrations per minute per microgram protein.

[5] = system: MC3T3-E1 cells; assay: Cell growth on pre-treated nylon ribbons; settings: up to 4 days, 0.1 mg/ml fibrinogen, HAHp, 50 ng/ml FGF-2
Protocol: Growth on Nylon Ribbons: 250,000 MC3T3-E1 osteoblast cells were seeded in 12-well plates containing 1 inch by 1 inch nylon ribbons pre-treated with 0.1 mg/ml fibrinogen or 1 mg/ml HA and 3 mg/ml heparin (HAHp) with or without 50 ng/ml FGF-2. Cells were visualized under 10× objective at 1 and 4 days after seeding.

[6] = system: human mesenchymal stem cells (hMSC); assay: Proliferation of mesenchymal stem cells, CyQuant relative cell number; settings: of treatment
Protocol: Mesenchymal stem cells were isolated from bone marrow by adding 50 μl ROSETTESEP® human mesenchymal stem cell enrichment cocktail (StemCell Technologies, Vancouver, BC, Canada) to each ml of bone marrow. The mixture was incubated for 20 minutes at room temperature and then diluted 2× with PBS containing 2% FBS and 1 mM EDTA. The diluted sample was layered on FICOLL-PAQUE™ (StemCell Technologies, Vancouver, BC, Canada) and centrifuged at 300×g for 25 minutes. Enriched MSCs were removed from the FICOLL-PAQUE™:plasma interface, washed with PBS containing 2% FBS and 1 mM EDTA, and resuspended in αMEM culture medium.
Isolated MSCs were seeded to 96-well plates. […] 2,000 cells per well were seeded on 96-well plates. […] Relative cell number was obtained with a CYQUANT® Cell Proliferation kit (Invitrogen, Carlsbad, Calif.) according to the manufacturer's protocol.

[7] = system: human MSCs; assay: Cell migration and growth in the center of a pre-treated collagen sponge; set-up: key to Cell Growth in Sponge: One positive (+) indicates low cell number visible in the field; two positives (++) indicates a thin layer of cells visible in the field; three positives (+++) indicates many cells visible in the field
[8] = system: MC3T3-E1 cells; assay: qRT-PCR gene expression in mineralizing cells treated with growth factor
Protocol: Cell Culture: MC3T3-E1 cells were grown and mineralized essentially as described in Example 1.
RNA Isolation: RNA was isolated using the RNeasy™ Mini kit (Qiagen, Valencia, Calif.) or TriReagent™ (Sigma-Aldrich, St. Louis, Mo.) according to the manufacturer's protocol.
Reverse Transcription: 1.5 μg of RNA was added to 30 μl reverse transcriptase (RT) reaction buffer containing 5 mM MgCl2, 10 mM Tris-HCl (pH 8.3), 50 mM KCl, 1 mM dNTPs, 2.5 μM oligo d(T) primer, 2.5 U/μl of MuLV RT, and 1 U/μl of RNase inhibitor. The RT reaction was incubated at room temperature for 10 min, 42° C. for 30 min, inactivated at 99° C. for 5 min, and cooled at 5° C. for 5 min.
Real-time Quantitative RT-PCR Reaction (qRT-PCR): 2 μl of cDNA from the RT reaction was added to 20 μl real-time quantitative polymerase chain reaction (qRT-PCR) mixture containing 10 μl of 2×SYBR® Green PCR Master Mix (Applied Biosystems, Foster City, Calif.) and 12 pmol oligonucleotide primers. PCR was carried out in a Bio-Rad MY iQ® Single-Color Real-Time PCR Detection System (Bio-Rad, Hercules, Calif.) at 50° C. for 2 min, 95° C. for 10 min to activate the Taq polymerase, followed by 50 amplification cycles, consisting of denaturation at 95° C. for 1 min 40 sec, annealing at 63° C. for 1 min 10 sec, and elongation at 72° C. for 1 min 40 sec. Fluorescence was measured and used for quantitative purposes. At the end of the amplification period, melting curve analysis was performed to confirm the specificity of the amplicon. RNA samples were normalized to a cyclophilin (CPHI) internal standard. Relative quantification of gene expression was calculated by using the 2^−(Ct gene T−Ct CPHI T)−(Ct gene 0 hr−Ct CPHI 0 hr) equation, where “Ct gene T” represents the calculated threshold cycle (Ct) of a time point of each sample other than 0 hr, or each treatment other than control. Relative gene abundance is calculated using 2^(Ct gene T−Ct CPHI T), resulting numbers were then multiplied by 10,000 for better graphical presentation. Primer sequences were previously described (Hughes-Fulford and Gilbertson, FASEB J. 13:S121-127, 1999; Hughes-Fulford et al., Gravit. Space Biol. Bull. 11:51-60, 1998; Tjandrawinata and Hughes-Fulford, Adv. Exp. Med. Biol. 407:163-170, 1997; Hughes-Fulford, Adv. Exp. Med. Biol. 400A:269-278, 1997; Hughes-Fulford and Lewis, Exp. Cell Res. 224:103-109, 1996). All data derived using qRT-PCR was from multiple experiments with triplicate independent biological samples.

[9] = 24 hours, FGF-2 5 ng/ml or BMP-2 100 ng/ml, corrected to cyclophilin

## fibronectin
[1]
  MC3T3-E1 cell proliferation, in words: significantly increased

## insulin-like growth factor-1 [IGF-1]
[2]
  re-growth of cells into the defect, in words: little and unremarkable re-growth
[3]
  Total Protein/Culture: 1.19
[4]
  change in DNA synthesis (thymidine incorporation), in words: small and unremarkable changes

## platelet-derived growth factor [PDGF]
[2]
  re-growth of cells into the defect, in words: little and unremarkable re-growth
[3]
  Total Protein/Culture: 1.38
[4]
  change in DNA synthesis (thymidine incorporation), in words: small and unremarkable changes

## transforming growth factor β [TGFβ]
[2]
  re-growth of cells into the defect, in words: showed cellular proliferation at the interface of the mature cultures and the defect
  relative migration: 1.8±0.4 mm
[3]
  Total Protein/Culture: 1.55
[4]
  increase of thymidine incorporation: more than 2 fold
  change in DNA synthesis (thymidine incorporation), in words: significantly enhanced

## CCCCC[C@H](O)/C=C/[C@H]1[C@H](O)CC(=O)[C@@H]1C/C=C\CCCC(=O)O [PGE2, prostaglandin E2, reference compound]
[2]
  re-growth of cells into the defect, in words: showed cellular proliferation at the interface of the mature cultures and the defect
  pattern of re-growth and cell morphology in the defect, in words: more linear pattern and formed multiple elongated pseudopodia
  relative migration: 3.2±0.2 mm
[3]
  Total Protein/Culture: 1.51
[4]
  increase of thymidine incorporation: > 3.3 fold
  change in DNA synthesis (thymidine incorporation), in words: significantly enhanced

## fibrinogen
[5]
  cell growth on nylon ribbon, in words: Little or no cell proliferation

## fibroblast growth factor-2 [FGF-2]
[2]
  re-growth of cells into the defect, in words: showed cellular proliferation at the interface of the mature cultures and the defect
  pattern of re-growth and cell morphology in the defect, in words: rapid coverage of the defect void
  relative migration: 5.4±0.5 mm
[6]
  optimum dose for proliferation: 2.5 to 5 ng/mL
[3]
  Total Protein/Culture: 1.49
[5]
  cell growth on nylon ribbon, in words: Little or no cell proliferation
[7]; center of collagen sponge, after four days, 100 ng/ml FGF-2, 0.1 mg/ml fibrinogen, HAHp 0.3% w/w heparin with 1% hyaluronic acid
  Cell Growth in Sponge: +
[7]; pre-treated collagen sponge
  cells observed in the collagen sponge, in words: Some cells were observed
[4]
  increase of thymidine incorporation: more than 4.5 fold
  change in DNA synthesis (thymidine incorporation), in words: significantly enhanced
[8]; [9]
  Relative abundance of gene expression: ALP: 13.39
  Relative abundance of gene expression: BMP-2: **0.06
  Relative abundance of gene expression: Collagen Type I: **678.21
  Relative abundance of gene expression: Fibronectin: *28432.19
  Relative abundance of gene expression: IGF-1: **50.65
  Relative abundance of gene expression: MMP3: **4.04
  Relative abundance of gene expression: Noggin: *1.61
  Relative abundance of gene expression: OC: **1.38
  Relative abundance of gene expression: RUNX2: **674.95
  Relative abundance of gene expression: TGFβ: **245.40
  Relative abundance of gene expression: VEGFA: **5132.66
[8]; over 24 hours
  expression of genes associated with mineralization (col1a1, fn, bmp-2, oc, runx2, noggin), in words: significantly decreased; also recorded: significantly suppressed
  expression of igf-1, in words: significantly decreased
[8]; over a 24 hour period
  expression of egr-1, fgf-2, cox-2, tgfβ, mmp3, vegfA and vegfr1, in words: dramatically induced
